# Legend:
# [1] = system: subjects with previously treated locally advanced or metastatic urothelial cancer; experiment: EV-301: progression free survival (PFS1) per RECIST V1.1, investigator assessment; type: in vivo, human
# From the text: For each subject, PFS1 is defined as the time from the date of randomization until the date of radiological disease progression (per RECIST V1.1), or until death due to any cause. If a subject has neither progressed nor died, the subject was censored at the date of last radiological assessment. Subjects who receive any further anticancer therapy for the disease before radiological progression were censored at the date of the last radiological assessment before the anticancer therapy started.
# The efficacy endpoint of PFS1 was analyzed using the log-rank test stratified by ECOG PS (0 vs 1), regions of the world (Western EU, US or the rest of world) and liver metastasis (yes or no). Randomized treatment and the strata used for randomization was used for the analysis. In addition, stratified Cox proportional hazard model was used to estimate the hazard ratio and the corresponding 95% confidence interval. The median PFS1 was estimated using the Kaplan-Meier method and reported along with the corresponding 95% confidence interval by treatment arm.
# The primary analysis was performed using the FAS. Additional sensitivity analyses for PFS1 was also be performed. Details are specified in the SAP.
# [2] = system: subjects with previously treated locally advanced or metastatic urothelial cancer; experiment: EV-301: overall response rate, complete/partial response, disease control rate per RECIST V1.1 (response evaluable set); type: in vivo, human
# From the text: Subjects will be evaluated for response according to the RECIST V1.1. Imaging for both arms will be performed at baseline and every 56 days (±7 days) from the first dose of study treatment throughout the study until PFS1 is documented by radiological disease progression or the subject is lost to follow-up, death, withdraws study consent or starts a subsequent anti-cancer therapy.
# CR is defined as disappearance of all target and nontarget lesions. Any pathological lymph nodes (whether target or nontarget) must have reduction in short axis to <10 mm from baseline measurement.
# PR is defined as at least a 30% decrease in the sum of diameters (longest for nonnodal lesions, short axis for nodal lesions) of target lesions taking as reference to the baseline sum of diameters.
# SD is defined as neither sufficient decrease to qualify for PR nor sufficient increase to qualify for progressive disease taking as reference the smallest sum of diameters while on study drug.
# PD is defined as at least a 20% increase in the sum of diameters (longest for nonnodal lesions, short axis for nodal lesions) of the target lesions taking as reference the smallest sum on study (this includes the baseline sum if that is the smallest on study). […] The appearance of 1 or more new lesions is also considered progression.
# The response evaluable set (RES) is defined as all subjects in FAS and with measurable disease at baseline and had at least 6 months follow up since randomization. RES will be used for primary efficacy analysis of response related endpoints, e.g., ORR and DCR.
# The overall response rate (ORR) is defined as the proportion of subjects with complete or partial objective response based on the RECIST V1.1. The comparison of ORR between Arm A and Arm B was performed using a stratified CMH test. Same stratification factors used in time to event analyses will be used for the stratified CMH test. […] In addition, ORR for each arm was estimated and corresponding 95% confidence interval will be constructed. The primary analysis was performed using the RES.
# The DCR is defined as the proportion of subjects with a complete or partial objective response or a stable disease based on RECIST V1.1. The comparison of DCR between Arm A and Arm B was performed using a stratified CMH test. Same stratification factors used in time to event analyses were used for the stratified CMH test. […] In addition, DCR for each arm was estimated and corresponding 95% confidence interval will be constructed. The primary analysis was performed using the RES.
# 191P4D12 = target: T1, 191P4D12 (Homo sapiens, UniProt Q96NY8)
# T1 sequence (Q96NY8 32-510): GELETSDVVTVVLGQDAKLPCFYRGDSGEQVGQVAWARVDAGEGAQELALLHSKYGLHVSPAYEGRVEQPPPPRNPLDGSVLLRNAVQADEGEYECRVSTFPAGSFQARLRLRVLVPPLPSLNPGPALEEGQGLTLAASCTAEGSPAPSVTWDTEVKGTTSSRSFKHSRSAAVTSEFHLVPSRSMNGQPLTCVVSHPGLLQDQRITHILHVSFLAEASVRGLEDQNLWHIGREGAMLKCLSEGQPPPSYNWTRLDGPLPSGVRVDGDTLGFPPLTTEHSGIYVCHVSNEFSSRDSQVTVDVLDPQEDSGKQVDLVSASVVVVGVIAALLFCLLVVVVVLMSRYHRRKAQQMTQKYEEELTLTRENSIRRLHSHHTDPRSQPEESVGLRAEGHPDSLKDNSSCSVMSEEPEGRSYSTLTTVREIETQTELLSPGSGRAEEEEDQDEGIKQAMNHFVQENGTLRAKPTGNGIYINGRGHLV
# From the text: As described above and in U.S. Pat. No. 8,637,642, AGS-22M6E is an ADC derived from a murine hybridoma cell line.
# [3] = All, Response-Evaluable Population
substance,measurement,setting,value
enfortumab vedotin,Median PFS,[1]; All,5.55 mo
same,"PFS, EV vs SC HR",[1]; All,0.615
same,"Progression-free survival (PFS) Events, %",[1]; All,(66.8) %
same,"Progression-free survival (PFS) Events, n/N",[1]; All,201/301
same,Median PFS,"[1]; FAS, investigator assessment",5.55 Months
same,"PFS Events, %","[1]; FAS, investigator assessment",(66.8%)
same,reduction in risk of disease progression or death,[1]; PADCEV vs chemotherapy,39%
same,"ORR, EV vs SC Absolute Difference",[2]; [3],22.7%
same,"Overall response rate (ORR), %",[2]; [3],40.6%
same,"Overall response rate (ORR), n/N",[2]; [3],117/288
same,"Best overall response: Complete response, %","[2]; RECIST v1.1, RES",(4.9) %
same,"Best overall response: Not evaluable, %","[2]; RECIST v1.1, RES",(12.8) %
same,"Best overall response: Partial response, %","[2]; RECIST v1.1, RES",(35.8) %
same,"Best overall response: Progressive disease, %","[2]; RECIST v1.1, RES",(15.3) %
same,"Best overall response: Stable disease, %","[2]; RECIST v1.1, RES",(31.3) %
same,"Time to response, Median",[2]; RES,1.87 months
same,"Overall Response Rate (ORR), Confirmed, %","[2]; RES, investigator assessment, N = 288 EV, 296 chemotherapy",(40.6%)
same,"Disease control rate, Patients, %","[2]; RES, N = 288 EV, 296 chemotherapy",(71.9%)
same,"complete response, number of patients",[2]; of 288 (enfortumab vedotin) / of 296 (chemotherapy),14
same,Disease control,[2]; response-evaluable population,71.9%
same,"complete response, % of the patients",[2]; response-evaluable population,4.9%
same,comparability between enfortumab vedotin and AGS-22M6E,191P4D12,confirmed

# Source: patent US20230330251A1, “METHODS FOR TREATING CANCERS WITH ANTIBODY DRUG CONJUGATES (ADC) THAT BIND TO 191P4D12 PROTEINS” (AGENSYS, INC., priority 2020, published 2023)
